One assay addresses T1, pfDHODH (Plasmodium falciparum, UniProt Q08210).
T1 sequence (Q08210 24-569): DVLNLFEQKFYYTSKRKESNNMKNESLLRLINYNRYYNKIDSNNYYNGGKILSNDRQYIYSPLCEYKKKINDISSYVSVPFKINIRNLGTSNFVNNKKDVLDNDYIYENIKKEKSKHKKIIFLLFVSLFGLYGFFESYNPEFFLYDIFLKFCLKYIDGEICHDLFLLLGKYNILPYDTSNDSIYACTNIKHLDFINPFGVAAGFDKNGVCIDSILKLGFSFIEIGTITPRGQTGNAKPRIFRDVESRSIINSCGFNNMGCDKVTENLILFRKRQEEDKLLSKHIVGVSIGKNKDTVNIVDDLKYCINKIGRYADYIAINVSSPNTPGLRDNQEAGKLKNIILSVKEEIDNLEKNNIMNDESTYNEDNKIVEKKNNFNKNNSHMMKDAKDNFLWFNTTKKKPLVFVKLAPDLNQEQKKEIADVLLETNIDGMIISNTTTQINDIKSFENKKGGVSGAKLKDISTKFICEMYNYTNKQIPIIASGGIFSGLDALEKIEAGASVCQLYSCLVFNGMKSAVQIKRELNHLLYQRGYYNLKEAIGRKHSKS
Nature of the assay: biochemical. Particulars: recombinant enzyme, DCIP assay, IC50; read-out: PfDHODH. On the procedure: (§1) The compounds of the invention were also assessed for inhibitory activity against recombinant DHODH from the indicated species. Recombinant enzymes were produced and purified from E. coli as His6 fusion proteins and purified by Ni^+2-agarose chromatography as described.
(§2) Data were collected on a Synergy H1 hybrid plate reader in 96 well plate format at 28° C., using a final assay volume of 200 μl. Rate data (v) were converted to μmoles/min using the molar extinction coefficient for DCIP. Compounds were prepared in stock solutions of DMSO. An initial 100 mM stock was generated and this was used to prepare a 3 fold dilution series in DMSO. A 1:100 dilution of DMSO stock was made into assay buffer to generate the final concentration in the assay mix.
(§3) Assay Conditions: DHODH (ET=5-10 nM), substrates (0.2 mM L-dihydroorotate and 0.02 mM CoQD), DCIP (0.12 mM) and assay buffer (100 mM HEPES, pH 8.0, 150 mM NaCl, 10% Glycerol, 0.1%Triton) at 20° C. Concentration of compounds of the invention was varied in a 3-fold dilution series (0.01-100 uM). All data were collected in triplicate.
(§4) Fitting was performed in Graph Pad Prism to determine the IC50. Reported error represents the 95% confidence interval of the fit or the standard deviation of the mean.

In assay [1] the test system is P. falciparum Pf3D70087/N9. Kind of assay: SCID mouse P. falciparum in vivo efficacy model. The settings on record: oral, starting day 3 post infection, NSG mice engrafted with human erythrocytes. Set-up: species or system P. falciparum in NOD-scid IL-2Rγnull (NSG) mice. The procedure: Briefly, NOD-scid IL-2Rγnull (NSG) mice (Jackson Laboratory, USA) (23-36 g) engrafted with human erythrocytes as described were infected with 20×10^6 P. falciparum Pf3D70087/N9) generated in GlaxoSmithkline Tres Cantos (Spain) by intravenous injection. Compounds were administered orally in vehicle (saline solution for Chloroquine; 0.5% w/v sodium carboxymethylcellulose, 0.5% v/v benzyl alcohol, 0.4% v/v Tween 80 in water for triazolopyrimidine analogs). Compounds were administered at target doses ranging from 0.5 to 75 mg/kg (free base equivalent) starting on day 3 post infection. Formulation concentrations were measured to obtain the actual doses administered. Parasitemia was monitored by flow cytometry and the effective dose (ED90) was calculated as described in Jimenez-Diaz, 2009, Antimicrobial agents and chemotherapy, 53, 4533-4536.

Assay [2] has as its system P. falciparum FC27 lab lines. Kind of assay: Ex vivo schizont maturation assay, lab line. In kind it is cell-based. Particulars: Plasmodium falciparum; ex vivo schizont maturation, 35-56 hrs; FC27 chloroquine sensitive lab strain; read-out: P. falciparum FC27 lab lines IC50. On the procedure:
To assess comparative activity between P. falciparum and P. vivax strains compounds were tested in an ex vivo parasite assay using Plasmodium isolates from patients who visited clinics in Timika (Papua, Indonesia). Parasites in this region are resistant to standard anti-malarials such as chloroquine. P. vivax can not be cultivated in vitro so the ex vivo assay is the only method to evaluate drug sensitivity. Patients with parasitemia between 2000 and 80,000 ul^−1 were eligible for recruitment into the study. Blood was collected by venipuncture, host white blood cells were removed and packed infected red blood cells were used for the ex vivo studies. Drug susceptibility was measured as previously described (Russell et al., 2008, Antimicrobial Agents Chemother., 52, 1040-1045; Marfurt et al., 2011, Antimicrobial Agents Chemother., 55, 961-966; Marfurt et al., 2011, Antimicrobial Agents Chemother., 55, 4461-4464). Briefly two hundred μl of a 2% hematocrit blood mixture, consisting of RPMI 1640 medium plus 10% AB+ human serum (P. falciparum) or McCoy's 5A medium plus 20% AB+ human serum (P. vivax) was added to each well of pre-dosed drug plates containing serial 2-fold dilutions of the anti-malarial compound. A candle jar was used to mature parasites at 37° C. for 35-56 hrs. […] Thick blood films made from each well were stained with 5% Giemsa for 30 min and examined microscopically. The number of schizonts per 200 asexual stage parasites was determined and normalized to the control well. Data were analyzed by nonlinear regression (WinNonLn 4.1) to determine the IC50 using the inhibitory sigmoid Emax model.
Drug plate quality was assured by running schizont maturation assays (two independent experiments) with the chloroquine-resistant strain K1 and the chloroquine-sensitive strain FC27. For microscopy slide reading QC, two randomly selected drugs per isolate were read by a second microscopist. […] If necessary, discrepant results were resolved by a third reading by an expert microscopist.

The target of another assay is mouse DHODH (Mus musculus, UniProt O35435). Nature of the assay: Recombinant DHODH inhibition, DCIP dye-based assay. It counts as biochemical. Particulars: third value of cell, read-out: h/d/m/r DHODH (m). The procedure: as §1, §2, §3, §4
The target of another assay is dog DHODH (Canis lupus familiaris, UniProt A0A8I3MWX2). Kind of assay: Recombinant DHODH inhibition, DCIP dye-based assay. It counts as biochemical. Particulars: dog DHODH, second value of cell; read-out: h/d/m/r DHODH (d). On the procedure: as §1, §2, §3, §4
Another assay addresses human DHODH (Homo sapiens, UniProt Q02127). Nature of the assay: Recombinant DHODH inhibition, DCIP dye-based assay. It counts as biochemical. The settings on record: first value of cell, read-out: h/d/m/r DHODH (h). The procedure:
as §1, §2, §3, §4

Another assay deals with rat DHODH (Rattus norvegicus, UniProt Q63707). Kind of assay: Recombinant DHODH inhibition, DCIP dye-based assay. The settings on record: fourth value of cell, read-out: h/d/m/r DHODH (r). It counts as biochemical. On the procedure: as §1, §2, §3, §4

Where only a bound is given, the exact number is not on record here.

Sequence of human DHODH (Q02127 whole entry): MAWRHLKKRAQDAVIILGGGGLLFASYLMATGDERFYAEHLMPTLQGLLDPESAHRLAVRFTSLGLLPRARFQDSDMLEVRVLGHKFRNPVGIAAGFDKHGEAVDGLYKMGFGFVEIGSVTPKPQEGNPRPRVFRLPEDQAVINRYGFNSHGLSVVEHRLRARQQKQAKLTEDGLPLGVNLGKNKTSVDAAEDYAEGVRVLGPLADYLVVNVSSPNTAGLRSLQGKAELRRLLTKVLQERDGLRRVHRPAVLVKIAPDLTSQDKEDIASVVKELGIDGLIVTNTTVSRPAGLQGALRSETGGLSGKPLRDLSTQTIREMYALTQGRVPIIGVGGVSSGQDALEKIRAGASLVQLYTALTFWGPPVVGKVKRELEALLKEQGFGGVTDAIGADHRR
Sequence of mouse DHODH (O35435 whole entry): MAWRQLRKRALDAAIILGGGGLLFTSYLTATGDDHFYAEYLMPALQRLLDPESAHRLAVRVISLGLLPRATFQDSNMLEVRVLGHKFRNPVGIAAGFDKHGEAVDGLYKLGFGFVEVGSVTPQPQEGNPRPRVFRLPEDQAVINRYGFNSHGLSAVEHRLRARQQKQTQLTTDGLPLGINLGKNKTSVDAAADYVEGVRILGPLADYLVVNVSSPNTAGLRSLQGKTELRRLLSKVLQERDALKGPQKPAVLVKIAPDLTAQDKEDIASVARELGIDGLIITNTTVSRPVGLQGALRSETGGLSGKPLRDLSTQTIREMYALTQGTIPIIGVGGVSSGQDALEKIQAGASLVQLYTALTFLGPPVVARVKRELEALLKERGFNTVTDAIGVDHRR
Sequence of dog DHODH (A0A8I3MWX2 1-406): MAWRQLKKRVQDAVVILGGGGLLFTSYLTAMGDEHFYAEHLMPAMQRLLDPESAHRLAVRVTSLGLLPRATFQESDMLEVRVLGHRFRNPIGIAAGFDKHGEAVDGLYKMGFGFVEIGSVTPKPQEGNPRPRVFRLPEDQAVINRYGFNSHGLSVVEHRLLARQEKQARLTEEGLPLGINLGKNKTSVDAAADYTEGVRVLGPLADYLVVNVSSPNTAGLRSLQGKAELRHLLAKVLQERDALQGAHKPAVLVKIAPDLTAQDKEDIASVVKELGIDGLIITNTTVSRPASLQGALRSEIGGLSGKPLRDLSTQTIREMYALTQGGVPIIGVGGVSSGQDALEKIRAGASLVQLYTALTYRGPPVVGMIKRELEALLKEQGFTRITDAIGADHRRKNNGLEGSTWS
Sequence of rat DHODH (Q63707 whole entry): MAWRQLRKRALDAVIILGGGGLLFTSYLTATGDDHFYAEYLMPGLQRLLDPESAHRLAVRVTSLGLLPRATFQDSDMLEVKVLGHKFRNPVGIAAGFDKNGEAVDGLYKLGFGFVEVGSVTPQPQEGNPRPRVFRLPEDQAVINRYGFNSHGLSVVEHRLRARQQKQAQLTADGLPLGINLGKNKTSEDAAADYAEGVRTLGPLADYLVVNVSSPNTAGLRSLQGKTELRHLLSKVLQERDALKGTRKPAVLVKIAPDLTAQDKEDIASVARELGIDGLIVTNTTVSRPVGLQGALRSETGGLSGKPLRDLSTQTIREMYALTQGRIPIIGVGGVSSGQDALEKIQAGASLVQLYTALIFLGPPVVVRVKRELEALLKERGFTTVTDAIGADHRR

With `Cc1cc(Nc2ccc(C(F)(F)F)nc2)n2nc(C(C)(F)F)nc2n1` [Compound (1), 2-(1,1-difluoroethyl)-5-methyl-N-(6-(trifluoromethyl)pyridin-3-yl)-[1,2,4]triazolo[1,5-a]pyrimidin-7-amine], the IC50 on pfDHODH was 0.03 µM; in assay [2], 0.292 µM; at mouse DHODH it was 54 µM; on dog DHODH it was 65 µM; on human DHODH it was above 100 µM; at rat DHODH, 24 µM. In assay [1], the ED90 was 2.6 mg/kg per day.

(Values after patent publication US20180065968A1, “NEW SUBSTITUTED TRIAZOLOPYRIMIDINES AS ANTI-MALARIAL AGENTS” (BOARD OF REGENTS OF THE UNIVERSITY OF TEXAS SYSTEM, priority 2015, published 2018).)
